Reference: US6437138B1, “3-pyridyloxymethyl heterocyclic ether compounds useful in controlling chemical synaptic transmission” (priority 1996, dated 2002)
Structures can show the parent of a compound that is named as a salt. Where two headings read alike, the source gives them in different places.

What was measured:
[1] = biological target: neuronal nicotinic cholinergic channel receptors (Rattus norvegicus, UniProt P09483+P12390); conditions: read-out: Binding Ki
Procedure: A. Protocol For Determination of Nicotinic Cholinergic Channel Receptor Binding Potencies of Ligands
Binding of [^3H]-cytisine ([^3H]-CYT) to nicotinic receptors was accomplished using crude synaptic membrane preparations from whole rat brain (Pabreza et al., Molecular Pharmacol, 1990, 39:9). Washed membranes were stored at −80° C. prior to use. Frozen aliquots were slowly thawed and resuspended in 20 volumes of buffer (containing: 120 mM NaCl, 5 mM KCl, 2 mM MgCl2, 2 mM CaCl2 and 50 mM Tris-Cl, pH 7.4 @ 4° C.). After centrifuging at 20,000×g for 15 minutes, the pellets were resuspended in 30 volumes of buffer. Homogenate (containing 125-150 μg protein) was added to triplicate tubes containing concentrations of test compound and [^3H]-CYT (1.25 nM) in a final volume of 500 μL. Samples were incubated for 60 minutes at 4° C., then rapidly filtered through Whatman GF/B filters presoaked in 0.5% polyethyleneimine using 3×4 mL of ice-cold buffer. The filters are counted in 4 mL of Ecolume® (ICN). Nonspecific binding was determined in the presence of […] (−)-nicotine and values were expressed as a percentage of total binding.

[2] = biological target: neuronal nicotinic cholinergic channels in IMR-32 cells (Homo sapiens, UniProt P30926+P32297); experiment: 86Rb+ efflux in IMR-32 cells (activation, or inhibition of efflux elicited by (S)-nicotine); format: cell-based; conditions: for inhibition at 1 µM / inhibition at 10 µM / Emax: IMR-32; for inhibition at 10 µM: single dose 10 μM; for Emax: read-out: IMR-32 maximal response
Description: For the purpose of directly evaluating the ability of test compounds to functionally activate or inhibit certain subtypes of neuronal nicotinic cholinergic channels, an assay to determine ^86Rb^+Efflux in IMR-32 cells was employed (Protocol B below).
B. Protocols for the Determination of Functional Effects of Cholinerzic Channel Receptor Ligands on Synaptic Transmission
Cells of the IMR-32 human neuroblastoma clonal cell line (ATCC, Rockville, Md.) were maintained in a log phase of growth according to established procedures (Lukas, 1993). Experimental cells were seeded at a density of 500,000 cells/ml into a 24-well tissue culture dish. Plated cells were allowed to proliferate for at least 48 hours before loading with 2 μCi/ml of ^86Rb^+ (35 Ci/mmol) overnight at 37° C. The ^86Rb^+ efflux assays were performed according to previously published protocols (Lukas, R. J., J. Pharmacol. Exp. Ther., 265: 294-302, 1993) except serum-free Dulbecco's Modified Eagle's Medium was used during the ^86Rb^+ loading, rinsing, and agonist-induced efflux steps.
EC50 data and maximal responses (reported as percent relative to the response elicited by 100 μM (S)-nicotine) are shown for selected compounds of the invention. The inhibition data (given for a larger number of compounds) reflect inhibition of the efflux elicited by 100 μM (S)-nicotine for either a single dose (% inhibition at 1 μM or at 10 μM) or over a range of doses (IC50 of inhibition). […] This finding is in agreement with the results of others who have linked dopamine release, which is dependent upon the ion flux in synaptic transmission, to binding at nicotinic receptors (cf., for example, Lippiello and Caldwell, U.S. Pat. No. 5,242,935, issued Sep. 7, 1993; Caldwell and Lippiello, U.S. Pat. No. 5,248,690, issued Sep. 28, 1993; and Wonnacott et al., Prog. Brain Res., 79: 157-163 (1989)).

[3] = displacement of [3H]-cytisine (1.25 nM), whole rat brain membranes, Ki from IC50 by Cheng and Prusoff correction
[4] = 86Rb+ efflux, percent relative to the response elicited by 100 μM (S)-nicotine
[5] = inhibition of the efflux elicited by 100 μM (S)-nicotine, single dose 1 μM
[6] = inhibition of the efflux elicited by 100 μM (S)-nicotine

Chain of neuronal nicotinic cholinergic channel receptors (P09483 31-630): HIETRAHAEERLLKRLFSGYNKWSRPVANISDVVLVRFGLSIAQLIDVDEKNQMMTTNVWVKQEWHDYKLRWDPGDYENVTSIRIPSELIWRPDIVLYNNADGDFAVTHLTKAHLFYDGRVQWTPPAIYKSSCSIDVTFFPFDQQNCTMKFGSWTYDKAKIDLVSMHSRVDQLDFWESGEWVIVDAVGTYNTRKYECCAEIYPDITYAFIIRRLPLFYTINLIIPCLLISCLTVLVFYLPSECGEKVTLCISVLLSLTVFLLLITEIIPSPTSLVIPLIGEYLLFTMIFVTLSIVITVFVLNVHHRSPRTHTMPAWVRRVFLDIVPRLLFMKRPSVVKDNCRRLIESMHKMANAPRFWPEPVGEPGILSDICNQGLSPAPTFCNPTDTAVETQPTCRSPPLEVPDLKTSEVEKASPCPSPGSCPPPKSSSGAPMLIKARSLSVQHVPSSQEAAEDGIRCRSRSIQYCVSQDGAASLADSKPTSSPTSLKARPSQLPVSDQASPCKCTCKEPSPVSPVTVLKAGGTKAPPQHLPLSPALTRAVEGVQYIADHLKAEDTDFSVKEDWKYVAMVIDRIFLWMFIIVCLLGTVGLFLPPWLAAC
Chain of neuronal nicotinic cholinergic channel receptors (P12390 25-500): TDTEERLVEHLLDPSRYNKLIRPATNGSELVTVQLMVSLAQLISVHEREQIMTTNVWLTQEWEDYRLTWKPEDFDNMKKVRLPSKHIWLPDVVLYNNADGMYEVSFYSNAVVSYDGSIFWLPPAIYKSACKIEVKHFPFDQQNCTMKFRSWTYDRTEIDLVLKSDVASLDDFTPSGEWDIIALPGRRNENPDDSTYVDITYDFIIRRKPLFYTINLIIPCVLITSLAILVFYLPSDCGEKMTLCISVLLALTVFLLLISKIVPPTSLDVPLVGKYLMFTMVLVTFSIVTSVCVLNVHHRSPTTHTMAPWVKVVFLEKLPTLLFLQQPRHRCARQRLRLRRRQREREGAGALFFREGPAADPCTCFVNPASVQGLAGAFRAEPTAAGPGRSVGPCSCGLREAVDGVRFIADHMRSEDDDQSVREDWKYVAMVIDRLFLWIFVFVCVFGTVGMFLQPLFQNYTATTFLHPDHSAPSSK

Compound | Ki [1, 3] | inhibition at 1 µM [2, 5] | melting point | other results
5-(5,5-Dimethyl-1,3-hexadienyl)-6-chloro-3-(2-(R)-pyrrolidinylmethoxy)pyridine Citric Acid Salt [Example 55] | 4.6 nM |  |  | EC50 ([2]; 86Rb+ efflux, activation): > 10000 µM; IMR-32 maximal response [2, 4]: 24.5%
5-Hexenyl-3-(1-methyl-2-(S)-pyrrolidinylmethoxy)pyridine Dihydrochloride [Example 12] | 0.32 nM |  |  | % Inhibition @ 1 μM [2, 5]: 25%
CN1CCC[C@H]1COc1cncc(-c2cccc([N+](=O)[O-])c2)c1 [Example 1, 5-(3-Nitrophenyl)-3-(1-methyl-2-(S)-pyrrolidinylmethoxy)pyridine Dihydrochloride] | 0.46 nM | 13% |  | 
CN1CCC[C@H]1COc1cncc(-c2cccc3ccccc23)c1 [Example 2, 5-(1-Naphthalenyl)-3-(1-methyl-2-(S)-pyrrolidinylmethoxy)pyridine Dihydrochloride] | 4.2 nM | 47% |  | 
COc1ccc(-c2cncc(OC[C@@H]3CCCN3C)c2)cc1 [Example 3, 5-(4-Methoxyphenyl)-3-(1-methyl-2-(S)-pyrrolidinylmethoxy)pyridine Dihydrochloride] | 0.32 nM | 39% |  | 
CN1CCC[C@H]1COc1cncc(-c2ccco2)c1 [Example 5, 5-(2-Furanyl-3-(1-methyl-2-(S)-pyrrolidinylmethoxy)pyridine Dihydrochloride] | 0.19 nM | 27% |  | 
CN1CCC[C@H]1COc1cncc(-c2cccs2)c1 [Example 6, 5-(2-Thienyyl)-3-(1-methyl-2-(S)-pyrrolidinylmethoxy)pyridine Dihydrochloride] | 0.31 nM | 28% |  | 
CN1CCC[C@H]1COc1cncc(-c2cccnc2)c1.Cl.Cl [Example 7, 5-(3-Pyridyl)-3-(1-methyl-2-(S)-pyrrolidinylmethoxy)pyridine Dihydrochloride] | 0.27 nM |  | 155 to 160 °C | 
CC(=O)c1cncc(OC[C@@H]2CCCN2C)c1 [Example 10, 5-Acetyl-3-(1-methyl-2-(S)-pyrrolidinylmethoxy)pyridine Dihydrochloride] | 1.2 nM | 32% |  | 
CN1CCC[C@H]1COc1cncc(-c2ccc(F)cc2)c1 [Example 11, 5-(4-Fluorophenyl)-3-(1-methyl-2-(S)-pyrrolidinylmethoxy)pyridine Dihydrochloride] | 0.11 nM | 38% |  | 
CN1CCC[C@H]1COc1cncc(/C=C/c2ccccc2)c1 [Example 18, 5-trans-(2-Phenylethenyl)-3-(1-methyl-2-(S)-pyrrolidinylmethoxy)pyridine Dihydrochloride] | 0.24 nM | 43% |  | 
CN1CCC[C@H]1COc1cncc(C(=O)N2CCCC2)c1 [Example 19, 5-(1-Pyrrolidinylcarbonyl)-3-(1)-methyl-2-(S)-pyrrolidinylmethoxy)pyridine Dihydrochloride] | 20 nM | 14% |  | 
CN1CCC[C@H]1COc1cncc(CCc2ccccc2)c1 [Example 21, 5-(2-Phenylethyl)-3-(1-methyl-2-(S)-pyrrolidinylmethoxy)pyridine Dihydrochloride] | 0.22 nM | 22% |  | 
COC(=O)c1cncc(OC[C@@H]2CCCN2C)c1 [Example 27, 5-Methoxycarbonol-3-(1-methyl-2-(S)-pyrrolidinylmethoxy)pyridine Dihydrochloride] | 1.5 nM | 26% |  | 
CN1CCC[C@H]1COc1cncc(CCc2ccncc2)c1 [Example 29, 5-(2-(4-Pyridinnyl)ethyl)-3-(1-methyl-2-(S)-pyrrolidinnylmethoxy)pyridine Trihydrochloride] | 0.064 nM | 32% |  | 
CN1CCC[C@H]1COc1cncc(-c2ccc3ccccc3c2)c1 [Example 31, 5-(2-Naphthalenyl-3-(1-methyl-2-(S)-pyrrolidinylmethoxy)pyridine Dihydrochloride] | 0.33 nM | 37% |  | 
CN1CCC[C@H]1COc1cncc(-c2cnc3ccccc3c2)c1 [Example 35, 5-(3-Ouinolinyl)-3-(1-methyl-2-(S)-pyrrolidinylmethoxy)pyridine Trihydrochloride] | 0.39 nM | 34% |  | 
CN1CCC[C@H]1COc1cncc(-c2cc(C(F)(F)F)cc(C(F)(F)F)c2)c1 [Example 37, 5-(3,5-bis(Trifluoromehyl)phenyl)-3-(1-methyl-2-(S)-pyrrolidinylmethoxy)pyridine Dihydrochloride] | 2.4 nM | 41% |  | 
CN1CCC[C@H]1COc1cncc(-c2ccc(F)c(Cl)c2)c1 [Example 42, 5-(3-Chloro-4-fluorolphenyl)-3-(1-methyl-2-(S)-pyrrolidinylmethoxy)pyridine Dihydrochloride] | 0.055 nM | 38% |  | 
CN1CCC[C@H]1COc1cncc(-c2ccccc2C=O)c1 [Example 44, 5-(2-Formylphenyl)-3-(1-methyl-2-(S)-pyrrolidinylmethoxy)pyridine Dihydrochloride] | 0.56 nM | 30% |  | inhibition at 10 µM [2, 6]: 97%
CN1CCC[C@@H]1COc1cncc(-c2ccccc2)c1.Cl.Cl [Example 53, 5-Phenyl-3-(1-methyl-2-(R)-pyrrolidinylmethoxy)pyridine Dihydrochloride] |  | 35% | 89 to 90 °C | inhibition at 10 µM [2, 6]: 100%
CN1CC[C@H]1COc1cncc(-c2ccccc2)c1.Cl.Cl [Example 57, 5-Phenyl-3-(1-methyl-2-(S)-azetidinylmethoxy)pyridine Dihydrochloride] |  | 21% | 120 to 122 °C | 
Cl.Cl.Clc1ncc(OC[C@@H]2CCCN2)cc1-c1ccccc1 [Example 84, 5-Phenyl-6-chloro-3-(2-(S)-pyrrolidinylmethoxy)pyridine Dihydrochloride] |  |  | 75 to 80 °C | Emax [2, 4]: 37%
Cl.Cl.Cl.c1cc(CCc2cncc(OC[C@H]3CCCN3)c2)ccn1 [Example 87, 5-(2-(4-Pyridinyl)ethyl)-3-(2-(R)-pyrrolidinylmethoxy)pyridine Trihydrochloride] |  |  | 178 to 180 °C | Emax [2, 4]: 40%
CN1CCC[C@H]1COc1cncc(-c2ccccc2)c1.Cl.Cl [Example 90, 5-Phenyl-3-(1-methyl-2-(S)-pyrrolidinylmethoxy)pyridine Dihydrochloride] | 0.111 nM |  | 88 to 90 °C | 
CN1CC[C@@H]1COc1cncc(-c2ccsc2)c1 [Example 91, 5-(3-Thienyl)-3-(1-methyl-2-(R)-azetdinylmethoxy)pyridine Dihydrochloride] |  |  |  | Ki [1]: 1.84 nM
C=Cc1cc(OC[C@@H]2CCN2)cnc1Cl.Cl.Cl [Example 165, 3-(2-(S)-Azetidinylmethoxy)-6-chloro-5-ethenylpyridine Dihydrochloride] |  |  | 121 °C (dec.) | Emax [2, 4]: 127%
CN1CCC[C@@H]1COc1cnc(Cl)c(-c2cncnc2)c1 [Example 180, 6-Chloro-3-(1-methyl-2-(R)-pyrrolidinylmethoxy)-5-pyrimidinylpyridine Hydrochloride] | 4.8 nM |  |  | 
C=Cc1cc(OC[C@@H]2CCCN2)cnc1Cl.Cl [Example 191, 6-Chloro-5-ethenyl-3-(2-(S)-pyrrolidinylmethoxy)pyridine Hydrochloride] |  |  | 195 to 197 °C | Emax [2, 4]: 106%
C=Cc1cc(OC[C@@H]2CCCN2)cnc1C=C.Cl [Example 193, 5,6-Diethenyl-3-(2-(S)-pyrrolidinylmethoxy)pyridine Hydrochloride] |  |  | 186 to 188 °C | Emax [2, 4]: 9.5%
